Results on twelve compounds are retold here after ChEMBL document CHEMBL1129773, “Novel 1,2-diarylcyclobutenes: Selective and orally active cox-2 inhibitors” (Bioorg Med Chem Lett, 1996).

Each structure is given as a SMILES string.

In data set [1] the target is T1, Prostaglandin G/H synthase 2 (Homo sapiens, UniProt P35354).
T1 sequence (P35354 whole entry): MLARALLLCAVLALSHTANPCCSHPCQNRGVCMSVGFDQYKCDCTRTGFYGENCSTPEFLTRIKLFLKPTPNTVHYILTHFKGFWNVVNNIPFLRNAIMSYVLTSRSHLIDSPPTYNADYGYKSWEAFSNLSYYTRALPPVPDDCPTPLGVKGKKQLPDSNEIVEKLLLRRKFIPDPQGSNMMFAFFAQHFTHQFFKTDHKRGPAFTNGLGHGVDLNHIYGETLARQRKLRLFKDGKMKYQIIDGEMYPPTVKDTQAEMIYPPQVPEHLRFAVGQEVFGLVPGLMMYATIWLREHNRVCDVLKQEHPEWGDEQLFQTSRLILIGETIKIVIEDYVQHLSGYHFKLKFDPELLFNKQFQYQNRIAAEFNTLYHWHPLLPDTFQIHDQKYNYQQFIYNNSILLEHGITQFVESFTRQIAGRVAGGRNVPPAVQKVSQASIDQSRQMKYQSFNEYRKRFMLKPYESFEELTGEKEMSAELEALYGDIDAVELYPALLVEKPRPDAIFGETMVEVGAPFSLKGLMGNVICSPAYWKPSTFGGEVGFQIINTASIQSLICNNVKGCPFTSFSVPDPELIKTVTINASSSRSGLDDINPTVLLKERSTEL
Format: cell-based, CHO.

The target of data set [2] is Prostaglandin G/H synthase 1 (Homo sapiens, UniProt P23219).
Data set [3] is described as follows: Compound was tested for plasma concentration in rats when administered at 20 mg/kg in 1% methocel at 1 hr. Format: ADME, organism-based. Also on record: dose 20 mg/kg. Particulars: rat, read-out: Cmax.
Data set [4] relates to Rattus norvegicus. The data set can be described thus: Compound was tested in vivo for efficacy in the rat paw edema assay upon oral administration. Type of data set: functional.
The next data set can be described thus: in vivo. Particulars: rat, plasma, 20 mg/kg.
The species entered for data set [5] is Rattus norvegicus. In words: animal or person. The settings on record: po, read-out: Inhibition.

Chain of Prostaglandin G/H synthase 1 (P23219 whole entry): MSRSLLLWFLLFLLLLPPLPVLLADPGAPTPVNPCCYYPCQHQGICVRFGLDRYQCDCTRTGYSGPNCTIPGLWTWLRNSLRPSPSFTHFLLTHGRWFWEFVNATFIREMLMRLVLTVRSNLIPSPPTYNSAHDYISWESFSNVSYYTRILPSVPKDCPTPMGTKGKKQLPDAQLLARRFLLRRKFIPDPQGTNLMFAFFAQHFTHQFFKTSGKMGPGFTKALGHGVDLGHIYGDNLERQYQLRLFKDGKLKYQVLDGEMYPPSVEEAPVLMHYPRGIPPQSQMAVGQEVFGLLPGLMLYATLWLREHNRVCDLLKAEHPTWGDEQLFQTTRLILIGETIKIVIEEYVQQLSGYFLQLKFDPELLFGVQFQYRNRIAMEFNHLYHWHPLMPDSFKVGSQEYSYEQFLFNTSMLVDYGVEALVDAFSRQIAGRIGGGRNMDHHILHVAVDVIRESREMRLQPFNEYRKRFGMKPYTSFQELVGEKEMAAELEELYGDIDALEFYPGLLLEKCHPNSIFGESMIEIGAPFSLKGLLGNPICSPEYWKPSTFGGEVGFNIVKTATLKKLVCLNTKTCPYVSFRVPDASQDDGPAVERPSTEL
Description for in vivo: Compound was tested for plasma concentration in rats when administered at 20 mg/kg in 1% methocel at 2 hr

For `CS(=O)(=O)c1ccc(C2=C(c3ccccc3)C(=O)C2)cc1`, the half-inhibitory concentration (IC50) in data set [1] was 110 nM; in data set [2], 4400 nM.

As to `CC1(C)C(=O)C(c2ccc(F)cc2)=C1c1ccc(S(C)(=O)=O)cc1`, the IC50 in data set [1] is 5 nM; in data set [2] it was 370 nM.

Take `CC1(C)C(c2ccc(S(C)(=O)=O)cc2)=C(c2ccccc2)/C1=N/O`: the concentration at 1 h in data set [3] amounted to 1800 nM. For the same compound, the IC50 was determined as 61 nM in data set [1] and 34000 nM in data set [2]. In the data set on Rattus norvegicus [4], this compound came in with a median effective dose (ED50) of 4.2 mg/kg.

Take `CC1(C)C(=O)C(c2ccccc2)=C1c1ccc(S(C)(=O)=O)cc1`: the concentration at 1 h in data set [3] was 7500 nM. Moreover, it took a dose of 2.4 mg/kg to reach the 50% effect level in the data set on Rattus norvegicus [4] (ED50).

Turning to `CC1(C)C(c2ccc(S(C)(=O)=O)cc2)=C(c2ccccc2)C1O` (configuration not stated), the IC50 stood at 530 nM in data set [1] and 45000 nM in data set [2].

`CC1(C)C(=O)C(c2ccc(S(C)(=O)=O)cc2)=C1c1ccccc1`: in data set [3], the concentration at 1 h amounted to 8500 nM. For the same compound, in the data set with Rattus norvegicus [4], it took a dose of 2.7 mg/kg to reach the 50% effect level (ED50). In data set [2], this compound yielded an IC50 of 2000 nM.

As for `C=C1CC(c2ccc(S(C)(=O)=O)cc2)=C1c1ccccc1`, in data set [3], the concentration at 1 h was determined as 1000 nM. Also, in the data set with Rattus norvegicus [4], the median effective dose (ED50) worked out at 5.5 mg/kg. Half-maximal inhibition in data set [2] (IC50) was put at 540 nM.

Consider `C=C1C(c2ccccc2)=C(c2ccc(S(C)(=O)=O)cc2)C1(C)C`, for which the figures for the IC50 in data set [1] and in data set [2] were 2.2 nM and 120 nM, respectively.

As to `CS(=O)(=O)c1ccc(C2=C(c3ccccc3)C(=O)C23CCCC3)cc1`, the IC50 was determined as 12 nM in data set [1] and 500 nM in data set [2].

In turn, `CS(=O)(=O)c1ccc(-c2cc(Br)sc2-c2ccc(F)cc2)cc1` [DUP-697] showed a median effective dose (ED50) with Rattus norvegicus [4] of 1.3 mg/kg. In the data set “in vivo”, this compound had a concentration at 2 h of 700 nM.

`CS(=O)(=O)c1ccc(C2=C(c3ccc(F)cc3)CC3(CC3)C2)cc1` registered an IC50 in data set [2] of 140 nM. The inhibition in vivo at 30 mg/kg in the data set listed under Rattus norvegicus [5] was 38%.

In the case of `CS(=O)(=O)c1ccc(C2=C(c3ccccc3)CC2)cc1`, the 50% inhibitory concentration (IC50) in data set [1] was greater than 5000 nM.
